Results on 2 compounds are retold here after US8445636B2, “Antimicrobial and anticancer lipopeptides” (Yeda Research & Development Co. Ltd., priority 2003, dated 2013).

Converted amounts (≈) assume the structure as drawn. Where two headings read alike, the source gives them in different places. Non-standard residues stand in square brackets, D forms with d. Residues, ends and D or L forms follow the SMILES beside them. *: point of attachment. Lauroyl = CCCCCCCCCCCC(=O)* Where only a bound is given, the exact number is not on record here.

Holding throughout (format): cell-based
One experiment has as its system E. coli D21.
The subject of experiment [1] is Aspergillus fumigatus ATCC 26430. Put plainly: microbe, parasite or virus in culture.
The subject of experiment [2] is Staphylococcus aureus ATCC 6538P. As to the method: (§1) The antibacterial activity of the lipopeptides was examined in sterile 96-well plates (Nunc F96 microtiter plates) in a final volume of 100 μl as follows: Aliquots (50 μl) of a suspension containing bacteria at concentration of 1×10^6 Colony-Forming Units (CFU)/ml in culture LB (Lauria broth) medium (pH 7.4 or pH 5.5) were added to 50 μl of water containing the lipopeptide in serial 2-fold dilutions in water. Adjustment of the pH was done by diluted solutions of HCl and NaOH Inhibition of growth was determined by measuring the absorbance at 600 nm with a Microplate autoreader E1309 (Bio-Tek Instruments), after an incubation time of 18-20 h at 37° C. Antibacterial activities were expressed as the minimal inhibitory concentration (MIC), the concentration at which 100% inhibition of growth was observed after 18-20 h of incubation. The bacteria used were: Escherichia coli ATCC 25922, Acinetobacter baumannii ATCC 19606, Pseudomonas aeruginosa ATCC 27853, Staphylococcus aureus ATCC 6538P, Enterococcus faecalis ATCC 29212, Enterobacter cloacae ATCC 49141. The antibacterial activity of lipopeptides was also examined against resistant bacteria: methicilin-resistant Staphylococcus aureus (MRSA) ATCC 700698 and vancomycin-resistant Enterococcus faecium (VRE) ATCC 700221. If not indicated otherwise, the bacterial growth was detected at pH 7.4.

In experiment [3] the test system is Pseudomonas aeruginosa ATCC 27853. The protocol:
as §1

For experiment [4], the system named is Escherichia coli ATCC 25922. As to the method: as §1
For experiment [5], the system named is Acinetobacter baumannii ATCC 19606. The protocol:
as §1

Experiment [6] has as its system Candida albicans ATCC 10231. Put plainly: microbe, parasite or virus in culture. The protocol:
(§2) The antifungal activity of the lipopeptides was examined in sterile 96-well plates (Nunc F96 microtiter plates) in a final volume of 200 μL as follows: 100 µl of a suspension containing fungi at a concentration of 1×10^4 Colony-Forming Units (CFU)/ml in culture medium (RPMI 1640, 0.165 M MOPS with L-glutamine, without NaHCO3) at pH 7.4 or pH 5.5 (adjustment of the pH was done by diluted solutions of HCl and NaOH) were added to 100 μl of water containing the peptide in serial 2-fold dilutions in water. The fungi were incubated in the presence of the lipopeptides for 24-48 h at 35° C. in a Binder KB115 incubator under agitation. Growth inhibition was determined by measuring the absorbance at 620 nm with a Microplate autoreader E1309 (Bio-Tek Instruments). Antifungal activity is expressed as the minimal inhibitory concentration (MIC), the concentration at which 100% inhibition of fungi growth was observed after the incubation time mentioned above. The fungi used were: Aspergillus niger ATCC 9642, Candida albicans ATCC 10231 and Cryptococcus neoformans ATCC 66031. If not indicated otherwise, the fungi growth was detected at pH 7.4.

In experiment [7] the test system is Cryptococcus neoformans ATCC 66031. Nature of the experiment: microbe, parasite or virus in culture. As to the method:
as §2

Take `CCCCCCCCCCCC(=O)N[C@H](CC(C)C)C(=O)N[C@@H](Cc1c[nH]cn1)C(=O)N[C@@H](Cc1c[nH]cn1)C(=O)N[C@H](CC(C)C)C(=O)N[C@H](CC(C)C)C(=O)N[C@@H](Cc1c[nH]cn1)C(=O)N[C@@H](Cc1c[nH]cn1)C(=O)N[C@H](CC(C)C)C(=O)N[C@H](CC(C)C)C(=O)N[C@@H](Cc1c[nH]cn1)C(=O)N[C@@H](Cc1c[nH]cn1)C(=O)N[C@H](CC(C)C)C(N)=O` [lipopeptide 26, (CH3-(CH2)10-CO-)-D-Leu-His-His-D-Leu-D-Leu-His-His-D-Leu-D-Leu-His-His-D-Leu-NH2] (Lauroyl-[dL]HH[dL][dL]HH[dL][dL]HH[dL]-NH2): the “Minimal inhibitory concentrations, E. Coli D21” value in the experiment with E. coli D21 (Table 6, pH 7.4) was more than 100 µM; with E. coli D21 (Table 7, pH 5.5), 100 µM (≈ 170 µg/mL). Moreover, the MIC was 100 µM (≈ 170 µg/mL) in experiment [1] (Table 12, with serum, pH 7.4, read-out: Minimal inhibitory concentrations, A. Fumig. With serum); more than 100 µM in experiment [1] (Table 12, without serum, pH 7.4, read-out: Minimal inhibitory concentrations, A. Fumig. Without serum); 100 µM (≈ 170 µg/mL) in experiment [1] (Table 13, pH 5.5, with serum, read-out: Minimal inhibitory concentrations, A. Fumig. With serum); 6.25 µM (≈ 10.6 µg/mL) in experiment [1] (Table 13, pH 5.5, without serum, read-out: Minimal inhibitory concentrations, A. Fumig. Without serum); more than 100 µM in experiment [6] (Table 12, with serum, pH 7.4, read-out: Minimal inhibitory concentrations, C. Albicans With serum); more than 100 µM in experiment [6] (Table 12, without serum, pH 7.4, read-out: Minimal inhibitory concentrations, C. Albicans Without serum). Further, the MIC in experiment [6] (Table 13, pH 5.5, with serum, read-out: Minimal inhibitory concentrations, C. Albicans With serum) is listed as more than 100 µM; in experiment [6] (Table 13, pH 5.5, without serum, read-out: Minimal inhibitory concentrations, C. Albicans Without serum) it was 9.375 µM (≈ 15.9 µg/mL); in experiment [7] (Table 12, with serum, pH 7.4, read-out: Minimal inhibitory concentrations, C. Neofor. With serum), 100 µM (≈ 170 µg/mL); in experiment [7] (Table 12, without serum, pH 7.4, read-out: Minimal inhibitory concentrations, C. Neofor. Without serum), 12.5 µM (≈ 21.3 µg/mL); in experiment [7] (Table 13, pH 5.5, with serum, read-out: Minimal inhibitory concentrations, C. Neofor. With serum), 50 µM (≈ 85.1 µg/mL); in experiment [7] (Table 13, pH 5.5, without serum, read-out: Minimal inhibitory concentrations, C. Neofor. Without serum), 3.125 µM (≈ 5.32 µg/mL). The “Minimal inhibitory concentrations, S. aureus II ATCC 6538P” value is 100 µM (≈ 170 µg/mL) in experiment [2] (Table 6, pH 7.4) and more than 100 µM in experiment [2] (Table 7, pH 5.5). The “Minimal inhibitory concentrations, P. Aeruginosa ATCC 27853” value in experiment [3] (Table 6, pH 7.4) is more than 100 µM; in experiment [3] (Table 7, pH 5.5) it was 100 µM (≈ 170 µg/mL). In addition, the “Minimal inhibitory concentrations, E. Coli ATCC 25922” value in experiment [4] (Table 6, pH 7.4) was more than 100 µM; in experiment [4] (Table 7, pH 5.5) it was more than 100 µM. The “Minimal inhibitory concentrations, A. baumannii ATCC 19606” value in experiment [5] (Table 6, pH 7.4) is 100 µM (≈ 170 µg/mL); in experiment [5] (Table 7, pH 5.5) it was more than 100 µM.

With `CCCCCCCCCCCC(=O)N[C@H](CC(C)C)C(=O)N[C@@H](CCCNC(=N)N)C(=O)N[C@@H](Cc1c[nH]cn1)C(=O)N[C@H](CC(C)C)C(=O)N[C@H](CC(C)C)C(=O)N[C@@H](CCCNC(=N)N)C(=O)N[C@@H](Cc1c[nH]cn1)C(=O)N[C@H](CC(C)C)C(=O)N[C@H](CC(C)C)C(=O)N[C@@H](CCCNC(=N)N)C(=O)N[C@@H](Cc1c[nH]cn1)C(=O)N[C@H](CC(C)C)C(N)=O` [lipopeptide 27, (CH3-(CH2)10-CO-)-D-Leu-Arg-His-D-Leu-D-Leu-Arg-His-D-Leu-D-Leu-Arg-His-D-Leu-NH2] (Lauroyl-[dL]RH[dL][dL]RH[dL][dL]RH[dL]-NH2), the “Minimal inhibitory concentrations, E. Coli D21” value in the experiment on E. coli D21 (D21, pH 5.5) was determined as 100 µM (≈ 176 µg/mL); with E. coli D21 (D21, pH 7.4) it was 100 µM (≈ 176 µg/mL). Moreover, the MIC is given as 100 µM (≈ 176 µg/mL) in experiment [1] (ATCC 26430, pH 5.5, read-out: Minimal inhibitory concentrations, A. Fumig. With serum); 6.25 µM (≈ 11 µg/mL) in experiment [1] (ATCC 26430, pH 5.5, read-out: Minimal inhibitory concentrations, A. Fumig. Without serum); 100 µM (≈ 176 µg/mL) in experiment [1] (ATCC 26430, pH 7.4, read-out: Minimal inhibitory concentrations, A. Fumig. With serum); 25 µM (≈ 44 µg/mL) in experiment [1] (ATCC 26430, pH 7.4, read-out: Minimal inhibitory concentrations, A. Fumig. Without serum); more than 100 µM in experiment [6] (ATCC 10231, pH 5.5, read-out: Minimal inhibitory concentrations, C. Albicans With serum); 25 µM (≈ 44 µg/mL) in experiment [6] (ATCC 10231, pH 5.5, read-out: Minimal inhibitory concentrations, C. Albicans Without serum). The MIC in experiment [6] (ATCC 10231, pH 7.4, read-out: Minimal inhibitory concentrations, C. Albicans With serum) is more than 100 µM; in experiment [6] (ATCC 10231, pH 7.4, read-out: Minimal inhibitory concentrations, C. Albicans Without serum), 12.5 µM (≈ 22 µg/mL); in experiment [7] (ATCC 66031, pH 5.5, read-out: Minimal inhibitory concentrations, C. Neofor. With serum), 25 µM (≈ 44 µg/mL); in experiment [7] (ATCC 66031, pH 5.5, read-out: Minimal inhibitory concentrations, C. Neofor. Without serum) it was 1.56 µM (≈ 2.74 µg/mL); in experiment [7] (ATCC 66031, pH 7.4, read-out: Minimal inhibitory concentrations, C. Neofor. With serum) it was 25 µM (≈ 44 µg/mL); in experiment [7] (ATCC 66031, pH 7.4, read-out: Minimal inhibitory concentrations, C. Neofor. Without serum) it was 3.125 µM (≈ 5.49 µg/mL). For the same compound, the “Minimal inhibitory concentrations, S. aureus II ATCC 6538P” value in experiment [2] (ATCC 6538, pH 5.5) stood at 100 µM (≈ 176 µg/mL); in experiment [2] (ATCC 6538, pH 7.4), 100 µM (≈ 176 µg/mL). In addition, the “Minimal inhibitory concentrations, P. Aeruginosa ATCC 27853” value in experiment [3] (ATCC 27853, pH 5.5) came out at 100 µM (≈ 176 µg/mL); in experiment [3] (ATCC 27853, pH 7.4), 100 µM (≈ 176 µg/mL). Also, the “Minimal inhibitory concentrations, E. Coli ATCC 25922” value turned out to be 100 µM (≈ 176 µg/mL) in experiment [4] (ATCC 25922, pH 5.5) and 100 µM (≈ 176 µg/mL) in experiment [4] (ATCC 25922, pH 7.4). The “Minimal inhibitory concentrations, A. baumannii ATCC 19606” value in experiment [5] (ATCC 19606, pH 5.5) was more than 100 µM; in experiment [5] (ATCC 19606, pH 7.4) it was 100 µM (≈ 176 µg/mL).
